Experimental data reported in paper PMC6211297 (Biochemistry, 2017).

Biological target: PglF (Campylobacter jejuni, UniProt Q0P9D4)
Test: X-ray crystal structure, […] Å
Type: binding
Conditions: ternary complex with NAD(H); 10 mM UDP, pH 6.0; active site

Chain of PglF (Q0P9D4 244-590): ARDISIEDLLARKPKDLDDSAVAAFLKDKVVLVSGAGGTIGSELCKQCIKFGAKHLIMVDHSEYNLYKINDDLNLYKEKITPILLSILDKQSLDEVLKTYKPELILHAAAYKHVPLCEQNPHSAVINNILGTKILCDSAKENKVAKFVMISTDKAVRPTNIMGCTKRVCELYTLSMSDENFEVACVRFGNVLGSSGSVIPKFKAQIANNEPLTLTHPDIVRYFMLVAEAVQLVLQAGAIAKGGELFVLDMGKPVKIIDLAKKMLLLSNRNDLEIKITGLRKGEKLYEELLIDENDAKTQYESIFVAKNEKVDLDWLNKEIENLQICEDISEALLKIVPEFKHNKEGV

O=c1ccn([C@@H]2O[C@H](COP(=O)(O)OP(=O)(O)O)[C@@H](O)[C@H]2O)c(=O)[nH]1 [UDP]
X-ray crystal structure, 2.0 Å: The first structure determined in this investigation was that of the PglF/NAD(H)/UDP ternary complex
